Test results as given in PubChem BioAssay (NCI).
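All cell lines were grown in 96-well plates and treated with compound for 48 hours. GI50 = concentration required for 50% inhibition of growth. TGI: concentration producing complete growth inhibition.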

Legend:
Test in all cases: inhibition of tumour cell growth, NCI panel, 48 h
SNB-19 CNS = tested on: SNB-19 CNS
EKVX NSCLC = tested on: EKVX NSCLC
DU-145 prostate = tested on: DU-145 prostate
786-0 renal = tested on: 786-0 renal
CCRF-CEM leukemia = tested on: CCRF-CEM leukemia
LOX IMVI melanoma = tested on: LOX IMVI melanoma
KM12 colon = tested on: KM12 colon
SK-MEL-5 melanoma = tested on: SK-MEL-5 melanoma
SN12C renal = tested on: SN12C renal
RXF 393 renal = tested on: RXF 393 renal

| Compound | TGI (SNB-19 CNS) [µM] | TGI (EKVX NSCLC) [µM] | TGI (DU-145 prostate) [µM] | TGI (786-0 renal) [µM] | TGI (CCRF-CEM leukemia) [µM] | TGI (LOX IMVI melanoma) [µM] | TGI (KM12 colon) [µM] | TGI (SK-MEL-5 melanoma) [µM] | TGI (SN12C renal) [µM] | TGI (RXF 393 renal) [µM] | GI50 (SNB-19 CNS) [µM] | GI50 (EKVX NSCLC) [µM] | GI50 (DU-145 prostate) [µM] | GI50 (786-0 renal) [µM] | GI50 (CCRF-CEM leukemia) [µM] | GI50 (LOX IMVI melanoma) [µM] | GI50 (KM12 colon) [µM] | GI50 (SK-MEL-5 melanoma) [µM] | GI50 (RXF 393 renal) [µM] | GI50 (SN12C renal) [µM] |
| --- | --- | --- | --- | --- | --- | --- | --- | --- | --- | --- | --- | --- | --- | --- | --- | --- | --- | --- | --- | --- |
| CCOC1OC(C)(C=C(C#N)C#N)CCC1C (stereo not drawn) | > 100 | > 100 | > 100 | > 89.2 | > 86 | > 75.8 | > 100 | > 100 | > 86.6 | > 91.7 |  |  |  |  |  |  |  |  |  |  |
| COc1ccccc1CNCCCN1C(=O)c2ccc3c4c(ccc(c24)C1=O)C(=O)N(CCCNCCCCN)C3=O | 2.58 | 2.82 | 2.35 | 3.67 | 3.28 | 0.557 | 1.29 | 0.303 |  | 1.41 | 0.51 | 1.15 | 0.664 | 0.616 | 0.304 | 0.202 | 0.332 | 0.164 | 0.34 |  |
| COc1cc(/C=C/C(=O)/C=C/c2ccc(-n3ccnc3)cc2)ccc1O | 47.7 | 42 | 10.1 | 4.85 | 12.7 | 3.19 | 4.59 | 12 | 7.53 | 3.42 | 4.37 | 13.2 | 3.36 | 2.01 | 2.68 | 1.74 | 2.11 | 3.43 | 1.81 | 2.41 |
| CNc1ccc(CSc2ccc(C)cc2)cc1 | > 100 | > 100 | > 100 | > 100 | 12.2 | > 100 | > 100 | 32.6 | 53.6 | 87.2 | 38.6 | 15.3 | 31 | 4.45 | 0.676 | 14.5 | 8.58 | 13.8 | 11.4 | 3.62 |
| Clc1cc(Cl)cc(Nc2ccc3c(OCCCN4CCOCC4)cccc3n2)c1 | 4.39 | 9.15 | 9.67 | 3.22 | 6.36 | 3.24 | 4.13 | 23.2 | 26.8 | 5.14 | 2.08 | 2.95 | 3.08 | 1.69 | 2.36 | 1.72 | 2 | 10.1 | 2.26 | 10.8 |
| Nc1c([N+](=O)[O-])ncn1C1OC(CO)C(O)C1O (stereo not drawn) | > 100 | > 100 | > 100 | > 100 | > 100 | > 100 | > 100 | > 100 | > 100 | > 100 | > 100 | > 100 | > 100 | > 100 | > 100 | > 100 | > 100 | > 100 | > 100 | > 100 |
| CN(C)CC(=O)N1CCc2c([nH]c3ccccc23)C1c1cccnc1 (stereo not drawn) | > 100 | > 100 | > 100 | > 100 | > 100 | > 100 | > 100 | > 100 | > 100 | > 100 |  |  | > 100 |  |  |  |  |  | > 100 |  |
| COc1ccc(C2=NOC3=c4ccccc4=CSC3=C2c2ccccc2)cc1 | > 100 | > 100 | > 100 | > 100 | > 100 | > 100 | > 100 | 39.7 | 68.9 | 63.7 | 34.7 | 94 | 19.8 | 27.5 | 21.7 | 44.8 | 57.7 | 16.5 | 22.2 | 22 |
| O=C(/C=C/c1ccccn1)c1ccccc1 | 26.7 | 31.2 | 25.7 | 10.7 | 6.61 | 3.08 | 15.5 | 24.8 | 17.1 | 13.1 | 12 | 15.4 | 13.1 | 2.84 | 2.43 | 1.63 | 4.13 | 12.1 | 3.17 | 4.33 |
| COc1ccc(N=C2C(=O)Nc3ccc(Br)cc32)cc1 | > 100 | 47.1 | > 100 | 43.6 | 37.2 | 27.4 | 29.4 | 23.3 | 40.1 | 36.9 |  |  |  |  |  |  |  |  |  |  |
| COc1cc([N+](=O)[O-])c(S(=O)(=O)O)cc1-[n+]1nc(C(=O)Nc2ccccc2)nn1-c1ccc([N+](=O)[O-])c(S(=O)(=O)[O-])c1 | > 100 | > 100 | > 100 | > 100 | > 100 |  | > 100 | > 100 | > 100 | > 100 |  |  |  |  |  |  |  |  |  |  |
| COc1cc(-c2ccc[nH]2)[nH]c1/C=C1\N=C(C)C(C(=O)NC(C)C)=C1C | 23.8 | 23.2 | 18.2 | 11.7 | 32 | 2.52 | 13.7 | 2.7 | 24 | 9.66 | 10.4 | 6.35 | 4.7 | 2.9 | 1.77 | 0.74 | 1.93 | 1.34 | 2.28 | 10.7 |
| CC(C)(C)OC(=O)CC(S(=O)(=O)c1ccccc1)S(=O)(=O)c1ccccc1 | > 100 | 39.4 | 28.8 | 27.4 | 3.83 | 33.2 |  | 28.8 | 29.6 | 3.31 | > 100 | 19.6 | 15.2 | 13.9 | 1.64 | 13.8 |  | 15.5 | 1.8 | 15.4 |
| CC[C@]1(O)C[C@@H]2CN(CCc3c([nH]c4ccccc34)[C@@](C(=O)OC)(c3cc4c(cc3OC)N(C)[C@H]3[C@@](O)(C(=O)OC)[C@H](OC(=O)CCCBr)[C@]5(CC)C=CCN6CC[C@]43[C@@H]65)C2)C1 | > 100 | > 100 | 1.43 | > 33.1 | > 100 |  | 3.84 |  | > 100 | < 0.01 | < 0.0215 | 0.336 | < 0.01 | 0.0535 | 0.0232 |  | < 0.0163 |  | < 0.01 | 0.046 |
